Reference: ChEMBL document CHEMBL6078706, “Deciphering the Comprehensive Structure-Activity Relationship of Sunshinamide for Breast Cancer Therapy through Dual Modulation of Apoptotic and Ferroptotic Pathways via TrxR1 and Gpx4 Inhibition” (J Med Chem, 2024)
Activity calls are given as the source filed them. No cut-off for these calls is given here.

What was measured:
[1] = Toxicity in female BALB/c mouse implanted with mouse 4T1 cells assessed as heart inflammation at 10 mg/kg, iv; type: organism-based; conditions: in vivo
MDA-MB-468 [2] = test: Induction of ROS production in human MDA-MB-468 cells assessed as increase in fluorescent signal at 25 nM incubated for 6 hrs by DCFH-DA staining based flow cytometry analysis; type: functional, cell-based
[3] = Toxicity in female BALB/c mouse implanted with mouse 4T1 cells assessed as kidney lesion at 10 mg/kg, iv; type: organism-based; conditions: in vivo
4T1 [4] = test: Antitumor activity against mouse 4T1 cells implanted in female BALB/c mouse assessed as increase in MDA level in tumor at 10 mg/kg, iv administered upto 5 days by Western blot analysis; type: functional, organism-based; conditions: time <= 5.0 day
4T1 [5] = test: Antitumor activity against mouse 4T1 cells implanted in female BALB/c mouse model assessed as increase in cleaved caspase-3 level in tumor at 10 mg/kg, iv administered upto 5 days; type: functional, organism-based; conditions: time <= 5.0 day
MDA-MB-468 [6] = test: Antiproliferative activity against human MDA-MB-468 cells assessed as reduction in cell viability at 50 nM incubated for 48 hrs in presence of Z-VAD by MTT assay; type: functional, cell-based
4T1 [7] = test: Antitumor activity against mouse 4T1 cells implanted in female BALB/c mouse assessed as reduction in tumor weight at 10 mg/kg, iv administered upto 5 days; type: functional, organism-based; conditions: time <= 5.0 day
[8] = Toxicity in female BALB/c mouse implanted with mouse 4T1 cells assessed as liver inflammation at 10 mg/kg, iv; type: organism-based; conditions: in vivo
MDA-MB-468 [9] = test: Induction of endoplasmic reticulum (ER) stress-mediated apoptosis in human MDA-MB-468 cells assessed as increase in ATF4 expression at 25 nM measured at 2 hrs by Western blot analysis; type: functional, cell-based
[10] = Toxicity in female BALB/c mouse implanted with mouse 4T1 cells assessed as heart lesion at 10 mg/kg, iv; type: organism-based; conditions: in vivo
[11] = Toxicity in female BALB/c mouse implanted with mouse 4T1 cells assessed as lung inflammation at 10 mg/kg, iv; type: organism-based; conditions: in vivo
MDA-MB-468 [12] = test: Induction of ROS production in human MDA-MB-468 cells assessed as increase in ROS level at 25 nM incubated for 6 hrs by DCFH-DA staining based confocal microscopic analysis; type: functional, cell-based
4T1 [13] = test: Antitumor activity against mouse 4T1 cells implanted in female BALB/c mouse assessed as increase in phospho PERK level in tumor at 10 mg/kg, iv administered upto 5 days by Western blot analysis; type: functional, organism-based; conditions: time <= 5.0 day
4T1 [14] = test: Antitumor activity against mouse 4T1 cells implanted in female BALB/c mouse assessed as increase in ATF4 level in tumor at 10 mg/kg, iv administered upto 5 days by Western blot analysis; type: functional, organism-based; conditions: time <= 5.0 day
[15] = Toxicity in female BALB/c mouse implanted with mouse 4T1 cells assessed as heart abnormality at 10 mg/kg, iv; type: organism-based; conditions: in vivo
Cisplatin-resistant 4T1 [16] = test: Antiproliferative activity against mouse Cisplatin-resistant 4T1 cells assessed as reduction in cell viability incubated for 48 hrs by MTT assay; type: functional, cell-based
[17] = Toxicity in female BALB/c mouse implanted with mouse 4T1 cells assessed as liver lesion at 10 mg/kg, iv; type: organism-based; conditions: in vivo
MDA-MB-468 [18] = test: Induction of apoptosis in human MDA-MB-468 cells assessed as increase in cleaved PARP level at 25 nM measured after 48 hrs by Western blot analysis; type: functional, cell-based
[19] = Toxicity in female BALB/c mouse implanted with mouse 4T1 cells assessed as kidney inflammation at 10 mg/kg, iv; type: organism-based; conditions: in vivo
4T1 [20] = test: Antitumor activity against mouse 4T1 cells implanted in female BALB/c mouse assessed as reduction in tumor volume at 10 mg/kg, iv administered upto 5 days; type: functional, organism-based; conditions: time <= 5.0 day
[21] = Toxicity in female BALB/c mouse implanted with mouse 4T1 cells assessed as spleen lesion at 10 mg/kg, iv; type: organism-based; conditions: in vivo
Cisplatin-resistant 4T1 [22] = test: Antitumor activity against mouse Cisplatin-resistant 4T1 cells implanted in female BALB/c mouse assessed as increase in 4-HNE level at 10 mg/kg, ip; type: functional, organism-based
[23] = Toxicity in female BALB/c mouse implanted with mouse 4T1 cells assessed as heart damage at 10 mg/kg, iv; type: organism-based; conditions: in vivo
A549 = test: Antiproliferative activity against human A549 cells assessed as cell viability at 10 nM incubated for 48 hrs by MTT assay; type: functional, cell-based
4T1 [24] = test: Antitumor immunity against mouse 4T1 cells implanted in female BALB/c mouse model assessed as increase in ratio of CD8+ T cells to CD4+ T cells at 10 mg/kg, iv administered upto 5 days by flow cytometry analysis; type: functional, organism-based; conditions: time <= 5.0 day
4T1 [25] = test: Antitumor activity against mouse 4T1 cells implanted in female BALB/c mouse model assessed as increase in IFN-gamma expression in tumor at 10 mg/kg, iv administered upto 5 days; type: functional, organism-based; conditions: time <= 5.0 day
4T1 [26] = test: Antitumor activity against mouse 4T1 cells implanted in female BALB/c mouse at 10 mg/kg, iv administered upto 5 days; type: functional, organism-based; conditions: time <= 5.0 day
4T1 [27] = test: Antitumor activity against mouse 4T1 cells implanted in female BALB/c mouse model assessed as reduction in proportion of CD11b+ IL-6+ cells in tumor at 10 mg/kg, iv administered upto 5 days; type: functional, organism-based; conditions: time <= 5.0 day
HEK293 = test: Antiproliferative activity against human HEK293 cells assessed as cell viability at 10 nM incubated for 48 hrs by MTT assay; type: toxicity, cell-based; conditions: hek293, 48 h, 0.01 µM
4T1 [28] = test: Antitumor immunity against mouse 4T1 cells implanted in female BALB/c mouse model assessed as increase in proportion of tumor infiltrating CD8+ T cell at 10 mg/kg, iv administered upto 5 days by flow cytometry analysis; type: functional, organism-based; conditions: time <= 5.0 day

## CCCCCCC[C@@H]1CC(=O)N[C@H](Cc2ccccc2)C(=O)N[C@H]2CSSC[C@H](NC2=O)C(=O)O1
[1]
  Activity: Non-toxic
MDA-MB-468 [2]
  Activity: Active
[3]
  Activity: Non-toxic
4T1 [4]
  Activity: Active
4T1 [5]
  Activity: Active
MDA-MB-468 [6]
  Activity: Active
4T1 [7]
  Activity: Active
[8]
  Activity: Non-toxic
MDA-MB-468 [9]
  Activity: Active
[10]
  Activity: Non-toxic
[11]
  Activity: Non-toxic
MDA-MB-468 [12]
  Activity: Active
4T1 [13]
  Activity: Active
4T1 [14]
  Activity: Active
[15]
  Activity: Non-toxic
Cisplatin-resistant 4T1 [16]
  Activity: Active
[17]
  Activity: Non-toxic
MDA-MB-468 [18]
  Activity: Active
[19]
  Activity: Non-toxic
4T1 [20]
  Activity: Active
[21]
  Activity: Non-toxic
Cisplatin-resistant 4T1 [22]
  Activity: Active
[23]
  Activity: Non-toxic
A549
  Activity: Active
4T1 [24]
  Activity: Active
4T1 [25]
  Activity: Active
4T1 [26]
  Activity: Active
4T1 [27]
  Activity: Active
HEK293
  Activity: Non-toxic
4T1 [28]
  Activity: Active
